{"source": "paper PMC8510591", "about": "“A comprehensive study of the basic formulation of supersaturated self-nanoemulsifying drug delivery systems (SNEDDS) of albendazolum” (Drug Delivery, 2021)", "key": {"[1]": {"test": "ABZ solubility in oils, surfactants and co-surfactants", "format": "physicochemical", "conditions": "37 °C, 72 h", "protocol": "The solubility tests were carried out on various oils, surfactants, and co-surfactants. The solubility determination method previously used by Meena et al. ([2012]) was employed. Excess ABZ was added to a volume of 1 g of the tested oil, surfactants, and co-surfactants, and placed in well-stoppered vials. The vials were agitated for 72 h (specified after determination of the equilibrium time beyond which the solubility is stable) at 37 ± 0.05 °C in a constant temperature water bath until equilibrium was attained. Subsequently, the vial's contents were centrifuged at 4000 rpm for 15 min using an ultracentrifuge to separate the insoluble ABZ. After being diluted with the solvent mixture (methanol and 1 N HCl with 7:3), the supernatants were filtered through a cellulose filter ([…]), and the ultraviolet absorbance of the filtrates was measured using the tested oil diluted with the solvent mixture as a blank to be 248 nm using a UV spectrophotometer. The materials used in the study included sunflower oil, Captex 300, PEG 300. PEG 400, soya oil, olive oil, crodamol oil, corn oil, Lauroglycol FCC, Cremophor EL, Solutol HS15, Labrafac lipophile WL1349, Capmul PG8, SPAN 20, Captex 355, Tween 80, Acrysol […], Labrasol, Cremophor RH40, Acrysol K140, Maisine, Sesame oil, Capmul MCM, Capryol PGMC, and propylene glycol. Results from each experiment were expressed as values in μg/mL."}, "[2]": {"test": "ABZ saturated solubility in the selected SNEDDS pre-concentrate and in water", "format": "physicochemical", "protocol": "Excess ABZ was added to keep the glass vials containing 1 g of selected optimized SNEDDS preconcentrate (composed of 5% oleic acid, 65% tween 20, 30% PEG) airtight. The suspension was incubated at 30 ± 0.5 °C in a water bath for 72 h to attain equilibrium (Kang et al., [2012]). The suspension was then centrifuged for 15 min at 4000 rpm, after three days using an ultracentrifuge to eliminate the undissolved ABZ. This was then followed by filtration of the supernatant with a 0.22 µm membrane filter. After the desired dilution with solvent (methanol and 1 N HCl with 7:3) was achieved, the ultraviolet absorbance of the filtrate was measured using a UV spectrophotometer at 248 nm. Blanks of plain SNEDDS not containing any drugs diluted in the same ratio were used to cancel interference from the SNEDDS preconcentrate. The experiment was repeated thrice, and the average drug saturated solubility in mg/mL of the selected SNEDDS was calculated."}}, "data": [{"smiles": "CCCSc1ccc2nc(NC(=O)OC)[nH]c2c1", "note": "[ABZ, Albendazolum]", "values": [{"measurement": "Total solubility", "setting": "[1]; in Acrysol K140", "result": 46.60, "unit": "µg g^–1"}, {"measurement": "Total solubility", "setting": "[1]; in Acrysol K150", "result": 46.18, "unit": "µg g^–1"}, {"measurement": "Total solubility", "setting": "[1]; in Capmul MCM", "result": 5.59, "unit": "µg g^–1"}, {"measurement": "Total solubility", "setting": "[1]; in Capmul PG8", "result": 139.88, "unit": "µg g^–1"}, {"measurement": "Total solubility", "setting": "[1]; in Capryol PGMC", "result": 179.48, "unit": "µg g^–1"}, {"measurement": "Total solubility", "setting": "[1]; in Captex 300", "result": 40.23, "unit": "µg g^–1"}, {"measurement": "Total solubility", "setting": "[1]; in Captex 355", "result": 99.37, "unit": "µg g^–1"}, {"measurement": "Total solubility", "setting": "[1]; in Cremophor EL", "result": 179.76, "unit": "µg g^–1"}, {"measurement": "Total solubility", "setting": "[1]; in Cremophor RH40", "result": 46.72, "unit": "µg g^–1"}, {"measurement": "Total solubility", "setting": "[1]; in Crodamol oil", "result": 23.61, "unit": "µg g^–1"}, {"measurement": "Total solubility", "setting": "[1]; in Labrafac lipophile WL1349", "result": 96.78, "unit": "µg g^–1"}, {"measurement": "Total solubility", "setting": "[1]; in Labrasol", "result": 188.13, "unit": "µg g^–1"}, {"measurement": "Total solubility", "setting": "[1]; in Lauroglycol FCC", "result": 186.05, "unit": "µg g^–1"}, {"measurement": "Total solubility", "setting": "[1]; in Maisine", "result": 18.43, "unit": "µg g^–1"}, {"measurement": "Total solubility", "setting": "[1]; in Oleic acid", "result": 734.20, "unit": "µg g^–1"}, {"measurement": "Total solubility", "setting": "[1]; in Olive oil", "result": 0.79, "unit": "µg g^–1"}, {"measurement": "Total solubility", "setting": "[1]; in PEG 300", "result": 340.45, "unit": "µg g^–1"}, {"measurement": "Total solubility", "setting": "[1]; in PEG 600", "result": 498.90, "unit": "µg g^–1"}, {"measurement": "Total solubility", "setting": "[1]; in Propylene glycol", "result": 194.47, "unit": "µg g^–1"}, {"measurement": "Total solubility", "setting": "[1]; in SPAN 20", "result": 185.79, "unit": "µg g^–1"}, {"measurement": "Total solubility", "setting": "[1]; in Sesame oil", "result": 3.73, "unit": "µg g^–1"}, {"measurement": "Total solubility", "setting": "[1]; in Solutol HS15", "result": 193.44, "unit": "µg g^–1"}, {"measurement": "Total solubility", "setting": "[1]; in Soya oil", "result": 3.62, "unit": "µg g^–1"}, {"measurement": "Total solubility", "setting": "[1]; in Sunflower oil", "result": 0.43, "unit": "µg g^–1"}, {"measurement": "Total solubility", "setting": "[1]; in Tween 20", "result": 210.45, "unit": "µg g^–1"}, {"measurement": "Total solubility", "setting": "[1]; in Tween 80", "result": 172.19, "unit": "µg g^–1"}, {"measurement": "average increase of solubility, SNEDDS pre-concentrate vs water", "setting": "[2]; SNEDDS pre-concentrate relative to water", "result": 89, "unit": "fold"}, {"measurement": "solubility at 72 h", "setting": "[2]; SNEDDS preconcentrate 5% oleic acid, 65% tween 20, 30% PEG, 30 °C, 72 h", "result": 125, "unit": "µg/mL"}, {"measurement": "solubility", "setting": "[2]; water", "result": 1.4, "unit": "µg/mL"}]}]}
